Consider 15 molecules from patent US9981908B2, “Amino acid derivatives” (priority 2013, dated 2018).

Where two headings read alike, the source gives them in different places.

The target in the test is T1, pylRS/tRNA pair (Methanosarcina mazei, UniProt Q8PWY1, Y384F).
T1 construct: expressed in transfected cells; host or cells: HEK293 cells stably expressing pylRS
The format is cell-based. The note with it: HEK293 cells stably expressing pylRS, nnAAs at 2 mM for 2-3 days; for MFI / incorporation in the GFP reporter gene (green cells): tRNApyl and GFPY40 reporter; for MFI: GFP fluorescence by flow cytometry, geometric mean of the fluorescent cells; for Positive GFP Assay: transfected with tRNApyl and GFPY40 reporter, visual inspection under the microscope. From the text:
An in vitro cell based assay was developed to assess the compatibility of the pylRS/tRNA pair and the pyrrolysine analogs of the present invention (nnAAs) by and the efficiency of nnAAs integration into a target protein. For this, HEK293 cells stably expressing pylRS (SEQ ID NO 4) were transiently transfected with plasmids for the expression of tRNApyl (SEQ ID NO 7) and a reporter construct encoding GFPY40 (containing amber codon in place of tyrosine at amino acid residue number 40 (where 1 is the initiator methionine)) (SEQ ID NOs 10 and 11) using standard transfection protocols. Transfected cells were incubated with nnAAs at 2 mM for 2-3 days GFP production was analyzed qualitatively by visual inspection under the microscope. The GFP fluorescence was quantified by flow cytometry using an Accuri flow cytometer and the geometric mean of the fluorescent cells determined.
This cell based assay was used to determine whether the different nnAAs were suitable substrates for the pylRS and allowed its translation into a target protein. Cells expressing the PylRS/tRNApyl pair and containing a vector encoding the GFPY40 reporter gene were incubated in the presence of the nnAAs. nnAAs that are readily utilized by the PylRS/tRNApyl pair support the translation of the nnAA into the amber site of GFP and allow read-through of the gene producing full length GFP (fluorescent protein). The fluorescence intensity of the cells depends on the efficiency of nnAA incorporation. Thus, nnAAs that are poorly utilized produce weakly fluorescent or non-fluorescing cells. […] Furthermore, the relative expression levels in each sample was compared to those generated by substrates known to be efficiently utilized by pylRS.
In general terms: A reporter such as luciferase makes a cellular process visible.

T1 sequence (Q8PWY1 whole entry Y384F): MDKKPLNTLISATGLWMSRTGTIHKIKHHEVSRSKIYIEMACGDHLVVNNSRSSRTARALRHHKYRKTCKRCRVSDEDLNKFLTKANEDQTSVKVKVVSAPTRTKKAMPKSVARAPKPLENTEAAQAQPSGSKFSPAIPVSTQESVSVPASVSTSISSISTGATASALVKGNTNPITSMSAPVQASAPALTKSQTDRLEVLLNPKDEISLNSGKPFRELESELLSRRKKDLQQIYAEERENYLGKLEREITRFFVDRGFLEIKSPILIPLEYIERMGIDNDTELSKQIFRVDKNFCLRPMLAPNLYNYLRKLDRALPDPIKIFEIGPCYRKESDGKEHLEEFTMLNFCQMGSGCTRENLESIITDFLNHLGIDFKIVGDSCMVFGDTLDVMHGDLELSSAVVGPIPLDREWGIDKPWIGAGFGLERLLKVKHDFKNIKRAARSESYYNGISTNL

Regarding `[N-]=[N+]=NCCOC(=O)NCCCC[C@H](N)C(=O)O` [Formula IA.1, (2S)-2-amino-6-{[(2-azidoethoxy)carbonyl]amino}hexanoic acid], the MFI was 931,289 and the “Positive GFP Assay” value was “Yes”. Besides, the MFI (listed as 1A.1) is recorded as 931289.
Turning to `C=CCOC(=O)NCCSCC(N)C(=O)O` (stereo in doubt) [Formula III.3, (2S)-2-amino-3-[(2-{[(prop-2-en-1-yloxy)carbonyl]amino}ethyl)sulfanyl]propanoic acid], the “incorporation in the GFP reporter gene (green cells)” value (“incorporation” for short) is “incorporated in the GFP reporter gene and yield green cells”; the “Positive GFP Assay” value is listed as “Yes”.
Turning to `C=CCOC(=O)NCCCC[C@H](N)C(=O)O` [Formula IA.3, (2S)-2-amino-6-{[(prop-2-en-1-yloxy)carbonyl]amino}hexanoic acid], the MFI was 2,250,000 and the “Positive GFP Assay” value was “Yes”. In addition, the MFI (listed as 1A.3) is 2250000.
For the molecule `C#CCOC(=O)NCC(=O)NC[C@H](N)C(=O)O` [Formula V.2, (2S)-2-amino-3-(2-{[(prop-2-yn-1-yloxy)carbonyl]amino}acetamido)propanoic acid], the “incorporation” value is “incorporated in the GFP reporter gene and yield green cells”.
As to `[N-]=[N+]=NCCNC(=O)NCCCC[C@H](N)C(=O)O` [Formula IA.4, (2S)-2-amino-6-{[(2-azidoethyl)carbamoyl]amino}hexanoic acid], the “incorporation” value was “incorporated in the GFP reporter gene and yield green cells”; the MFI came out at 254250; the “Positive GFP Assay” value is “Yes”.
For `C#CCOC(=O)NCCSCC(N)C(=O)O` (stereo in doubt) [Formula III.2, (2S)-2-amino-3-[(2-{[(prop-2-yn-1-yloxy)carbonyl]amino}ethyl)sulfanyl]propanoic acid], the “incorporation” value was “incorporated in the GFP reporter gene and yield green cells”; the “Positive GFP Assay” value is recorded as “Yes”.
As for `C=CCOC(=O)NC(CCN=[N+]=[N-])C(=O)NC[C@H](N)C(=O)O` (stereo partly drawn) [Formula VIII.1, (2S)-2-amino-3-(4-azido-2-{[(prop-2-en-1-yloxy)carbonyl]amino}butanamido)propanoic acid], the “Positive GFP Assay” value is given as “Yes”.
In the case of `[N-]=[N+]=NCCNC(=O)CCCSCC(N)C(=O)O` (stereo in doubt) [Formula III.13, (2S)-2-amino-3-({3-[(2-azidoethyl)carbamoyl]propyl}sulfanyl)propanoic acid], the “incorporation” value was “incorporated in the GFP reporter gene and yield green cells”; the “Positive GFP Assay” value was “Yes”.
For `C=CCNC(=O)CCCSCC(N)C(=O)O` (stereo in doubt) [Formula III.12, (2S)-2-amino-3-({3-[(prop-2-en-1-yl)carbamoyl]propyl}sulfanyl)propanoic acid], the “incorporation” value was “incorporated in the GFP reporter gene and yield green cells”; the “Positive GFP Assay” value is on record as “Yes”.
For the molecule `[N-]=[N+]=NCCOC(=O)NCCSCC(N)C(=O)O` (stereo in doubt) [Formula III.1, (2S)-2-amino-3-[(2-{[(2-azidoethoxy)carbonyl]amino}ethyl)sulfanyl]propanoic acid], the “incorporation” value was “incorporated in the GFP reporter gene and yield green cells”; the “Positive GFP Assay” value was “Yes”.
Consider `C#CCOC(=O)NCCCC[C@H](N)C(=O)O` [Formula IA.2, (2S)-2-amino-6-{[(prop-2-yn-1-yloxy)carbonyl]amino}hexanoic acid], for which the MFI was 1,676,250 and the “Positive GFP Assay” value was “Yes”. Where the note is “listed as 1A.2”, this molecule registered an MFI of 1676250.
Take `[N-]=[N+]=NCCOC(=O)NCC(=O)NC[C@H](N)C(=O)O` [Formula V.1, (2S)-2-amino-3-(2-{[(2-azidoethoxy)carbonyl]amino}acetamido)propanoic acid]: the “incorporation” value was “incorporated in the GFP reporter gene and yield green cells”; the “Positive GFP Assay” value is listed as “Yes”.
Turning to `C=CCNC(=O)NCCCC[C@H](N)C(=O)O` [Formula IA.5, (2S)-2-amino-6-{[(prop-2-en-1-yl)carbamoyl]amino}hexanoic acid], the “incorporation” value was “incorporated in the GFP reporter gene and yield green cells”.
For the molecule `C=CCOC(=O)NCC(=O)NC[C@H](N)C(=O)O` [Formula V.3, (2S)-2-amino-3-(2-{[(prop-2-en-1-yloxy)carbonyl]amino}acetamido)propanoic acid], the “incorporation” value is “incorporated in the GFP reporter gene and yield green cells”; the “Positive GFP Assay” value is “Yes”.
As to `CCCC(N=[N+]=[N-])C(=O)NCCCC[C@H](N)C(=O)O` (stereo partly drawn) [Formula VII.1, (2S)-2-amino-6-(2-azidopentanamido)hexanoic acid], the “incorporation” value was “incorporated in the GFP reporter gene and yield green cells”; the “Positive GFP Assay” value was “Yes”.
